Test [1] addresses T1, σ2 receptor (Rattus norvegicus, UniProt Q5U3Y7).
T1 construct: tissue Harlan Winkelmann; host or cells: rat liver membranes
T1 sequence (Q5U3Y7 1-176): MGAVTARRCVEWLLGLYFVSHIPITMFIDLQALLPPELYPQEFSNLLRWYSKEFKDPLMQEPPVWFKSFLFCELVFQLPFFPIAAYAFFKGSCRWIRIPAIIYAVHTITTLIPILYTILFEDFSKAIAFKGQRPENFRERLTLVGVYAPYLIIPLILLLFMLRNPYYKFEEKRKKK
Briefly: Receptor binding assay with [3H]-ditolylguanidine on rat liver membranes. The settings on record: 3 nM [3H]-ditolylguanidine with 2 µM (+)-pentazocine, 180 min at room temperature, mean ± SEM, read-out: affinity to the σ2 receptor. As for the experimental part:
(§1) The pig brains were a donation of the local slaughterhouse (Coesfeld, Germany). Homogenizer: Elvehjem Potter (B. Braun Biotech International, Melsungen, Germany). Centrifuge: High-speed cooling centrifuge model Sorvall RC-5C plus (Thermo Fisher Scientific, Langenselbold, Germany). Filter: Printed Filtermat Typ A and B (Perkin Elmer LAS, Rodgau-Jügesheim, Germany), presoaked in 0.5% aqueous polyethylenimine for 2 h at room temperature before use. […] Before filling to the final volume of 1000 mL, the pH of the solution was adjusted to pH=7.5 by dropwise addition of 1M HCl. The filtration was carried out with a MicroBeta FilterMate-96 Harvester (Perkin Elmer). The scintillation analysis was performed using Meltilex (Typ A or B) solid scintillator (Perkin Elmer). The solid scintillator was melted on the filtermat at a temperature of 95 °C for 5 minutes. After solidifying of the scintillator at room temperature, the scintillation was measured using a MicroBeta Trilux scintillation analyzer (Perkin Elmer). The overall counting efficiency was 20 %. All experiments were carried out in triplicates using standard 96-well-multiplates (Diagonal, Muenster, Germany). […] The Ki-values are given as mean value ± SEM from three independent experiments.
Determination of affinity to the σ2 receptor
Two rat livers (Harlan Winkelmann, Borchen, Germany) were cut into smaller pieces and homogenized with the potter (500-800 rpm, 10 up-and-down strokes) in 6 volumes of cold 0.32 M sucrose. The suspension was centrifuged at 1200 x g for 10 min at 4 °C. The supernatant was separated and centrifuged at 31000 x g for 20 min at 4 °C. The pellet was resuspended in 5-6 volumes of buffer (50 mM TRIS, pH 8.0) and incubated at room temperature for 30 minutes. After the incubation, the suspension was centrifuged again at 31000 x g for 20 min at 4 °C. The final pellet was resuspended in 5 to 6 volumes of buffer, the protein concentration was determined according to the method of Bradford using bovine serum albumin as standard, and subsequently the preparation was frozen (-80 °C) in 1.5 mL portions containing about 2 mg protein/mL.
(50 Ci/mmol; ARC). […] The incubation was terminated by rapid filtration through the presoaked filtermats using a cell harvester. After washing each well five times with 300 µL of water, the filtermats were dried at 95 °C. Subsequently, the solid scintillator was placed on the filtermat and melted at 95 °C. The bound radioactivity trapped on the filters was counted in the scintillation analyzer as described in the "General procedures" section.

For test [2], the target named is T2, σ1 receptor (Cavia porcellus, UniProt Q60492).
T2 construct: tissue Harlan Winkelmann; host or cells: guinea pig brain membranes
Briefly: Receptor binding assay with [3H]-(+)-pentazocine on guinea pig brain membranes. The settings on record: 2 nM [3H]-(+)-pentazocine, guinea pig brain membranes; for Ki: 180 min at 37 °C, mean ± SEM, read-out: affinity to the σ1 receptor. As for the experimental part: as §1
Determination of the affinity to the σ1 receptor
Five guinea pig brains (Harlan Winkelmann, Borchen, Germany) were homogenized with the potter (500-800 rpm, 10 up-and-down strokes) in 6 volumes of cold 0.32 M sucrose. The suspension was centrifuged at 1200 x g for 10 min at 4 °C. […] This procedure was repeated twice. The final pellet was resuspended in 5 to 6 volumes of buffer, the protein concentration was determined according to the method of Bradford using bovine serum albumin as standard, and subsequently the preparation was frozen (-80 °C) in 1.5 mL portions containing about 1.5 mg protein/mL.
The test was performed with the radioligand [^3H]-(+)-pentazocine (42,5 Ci/mmol; Perkin Elmer). […] The incubation was terminated by rapid filtration through the presoaked filtermats using a cell harvester. After washing each well five times with 300 µl of water, the filtermats were dried at 95 °C. The bound radioactivity trapped on the filters was counted in the scintillation analyzer as described in the "General procedures" section. The non-specific binding was determined with 10 µM unlabeled (+)-pentazocine.

Test [3] concerns the target T3, polyamine binding site of the NR2B subunit of the NMDA receptor (Homo sapiens, UniProt Q05586+Q13224).
T3 construct: expressed in transfected cells; host or cells: mouse L(tk-) cells, dexamethasone-induced; gift from D. Steinhilber, University of Frankfurt
Description: Filtration-based receptor binding assay with [3H]-Ifenprodil as radioligand. Particulars: 5 nM [3H]-Ifenprodil, membrane homogenates of mouse L(tk-) cells transfected with NR1-1a/NR2B, 180 min at 37 °C, read-out: affinity to the NR2B binding site of the NMDA receptor. As to the method:
Mouse L(tk-) cells stably transfected with the dexamethasone-inducible eukaryotic expression vectors pMSG NR1-1a, pMSG NR2B in a 1:5 ratio were a generous gift from D. Steinhilber (Department of Pharmacy, University of Frankfurt, Germany). The transformed L(tk-) cells were grown in Modified Earl's Medium (MEM) containing 10% of standardized FCS (Biochrom AG, Berlin, Germany). The expression of the NMDA receptor at the cell surface was induced after the cell density of the adherent growing cells had reached approximately 90% of confluency. For the induction, the original growth medium was replaced by growth medium containing 4 µM dexamethasone and 4 µM ketamine (final concentration). After 24 h the cells were harvested by trypsination and pelleted (10 min, 5,000 x g, Hettich Rotina 35R centrifuge, Tuttlingen, Germany).
For the binding assay, the cell pellet was resuspended in PBS buffer and the number of cells was determined using an improved Neubauer's counting chamber (VWR, Darmstadt, Germany). Subsequently, the cells were lysed by sonication (4 °C, 6 x 10 s cycles with breaks of 10 sec). The resulting cell fragments were centrifuged with a high performance cool centrifuge (20,000 x g, 4 °C, Sorvall RC-5 plus, Thermo Scientific). The supernatant was discarded and the pellet resuspended in a defined volume of phosphate buffer saline (PBS) yielding cell fragments of approximately 500,000 cells/mL. The suspension of membrane homogenates was sonicated again (4 °C, 2 x 10 s cycles with a break of 10 min) and stored at -80 °C.
The cell membrane suspension was added last. All experiments were carried out in triplicates. The incubation was terminated by rapid filtration through filtermats using a cell harvester (MicroBeta FilterMate-96 Harvester, Perkin Elmer). Prior to harvesting, the filtermats were presoaked in 0.5% aqueous polyethylenimine for 2 h at room temperature. After washing each well five times with 300 µL of water, the filtermats were dried at 95 °C. Subsequently, the solid scintillator was placed on the filtermat and melted at 95 °C. After 5 min, the solid scintillator was allowed to solidify at room temperature. The bound radioactivity trapped on the filters was counted in the scintillation analyzer (Microbeta Counter, Perkin Elmer). The overall counting efficiency was 20%.
The protein concentration was determined by the method of Bradford, modified by Stoscheck. The Bradford solution was prepared by dissolving 5 mg of Coomassie Brilliant Blue G 250 in 2.5 mL EtOH (95%, v/v). 10 mL deionized H2O and 5 mL phosphoric acid (85%, m/v) were added to this solution, the mixture was stirred and filled up to a total volume of 50.0 mL with deionized water. The calibration was carried out using bovine serum protein as a standard in concentrations between 0.1 and 10 mg /L. In a 96-well standard multiplate, 10 µL of the calibration solution or 10 µL of the membrane receptor preparation were mixed with 190 µL of the Bradford solution, respectively.
Kd and Bmax were calculated as described in the "Data analysis" section.
Data analysis was performed with Graph Pad Prism® Software, Version 3.0 (Graph Pad Software Inc., San Diego, CA, USA).
Saturation analyses were made by nonlinear regression using the "one-site-saturation" calculation method. The IC50 values of the test compounds used in the competitive binding experiments were determined by nonlinear regression using the "one-site-competition" calculation method. […] The Ki values are given as mean values from three independent experiments ± Standard Error of the Mean (S.E.M).

Test [4] has as its target phencyclidine binding site of the NMDA receptor. The settings on record: radioligand constant; T. Utech, Dissertation, 2003, Universität Freiburg; cited from earlier work.
Setting [5] is: Ki mean of three experiments ± S.E.M.

Read-outs that look alike come from different tables or passages of the source.

As a reminder, the Kd is the free concentration of one partner at which half of the binding sites on the other are occupied at equilibrium, for simple one-to-one binding.

T2 sequence (Q60492 whole entry): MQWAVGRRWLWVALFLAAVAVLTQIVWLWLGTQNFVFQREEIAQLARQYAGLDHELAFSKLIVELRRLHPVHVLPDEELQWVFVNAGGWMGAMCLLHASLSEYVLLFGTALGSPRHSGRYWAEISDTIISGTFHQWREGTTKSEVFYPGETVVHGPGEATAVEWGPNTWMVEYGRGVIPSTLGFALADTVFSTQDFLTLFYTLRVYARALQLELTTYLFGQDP
T3 sequence (Q13224 27-1484, other chains not shown): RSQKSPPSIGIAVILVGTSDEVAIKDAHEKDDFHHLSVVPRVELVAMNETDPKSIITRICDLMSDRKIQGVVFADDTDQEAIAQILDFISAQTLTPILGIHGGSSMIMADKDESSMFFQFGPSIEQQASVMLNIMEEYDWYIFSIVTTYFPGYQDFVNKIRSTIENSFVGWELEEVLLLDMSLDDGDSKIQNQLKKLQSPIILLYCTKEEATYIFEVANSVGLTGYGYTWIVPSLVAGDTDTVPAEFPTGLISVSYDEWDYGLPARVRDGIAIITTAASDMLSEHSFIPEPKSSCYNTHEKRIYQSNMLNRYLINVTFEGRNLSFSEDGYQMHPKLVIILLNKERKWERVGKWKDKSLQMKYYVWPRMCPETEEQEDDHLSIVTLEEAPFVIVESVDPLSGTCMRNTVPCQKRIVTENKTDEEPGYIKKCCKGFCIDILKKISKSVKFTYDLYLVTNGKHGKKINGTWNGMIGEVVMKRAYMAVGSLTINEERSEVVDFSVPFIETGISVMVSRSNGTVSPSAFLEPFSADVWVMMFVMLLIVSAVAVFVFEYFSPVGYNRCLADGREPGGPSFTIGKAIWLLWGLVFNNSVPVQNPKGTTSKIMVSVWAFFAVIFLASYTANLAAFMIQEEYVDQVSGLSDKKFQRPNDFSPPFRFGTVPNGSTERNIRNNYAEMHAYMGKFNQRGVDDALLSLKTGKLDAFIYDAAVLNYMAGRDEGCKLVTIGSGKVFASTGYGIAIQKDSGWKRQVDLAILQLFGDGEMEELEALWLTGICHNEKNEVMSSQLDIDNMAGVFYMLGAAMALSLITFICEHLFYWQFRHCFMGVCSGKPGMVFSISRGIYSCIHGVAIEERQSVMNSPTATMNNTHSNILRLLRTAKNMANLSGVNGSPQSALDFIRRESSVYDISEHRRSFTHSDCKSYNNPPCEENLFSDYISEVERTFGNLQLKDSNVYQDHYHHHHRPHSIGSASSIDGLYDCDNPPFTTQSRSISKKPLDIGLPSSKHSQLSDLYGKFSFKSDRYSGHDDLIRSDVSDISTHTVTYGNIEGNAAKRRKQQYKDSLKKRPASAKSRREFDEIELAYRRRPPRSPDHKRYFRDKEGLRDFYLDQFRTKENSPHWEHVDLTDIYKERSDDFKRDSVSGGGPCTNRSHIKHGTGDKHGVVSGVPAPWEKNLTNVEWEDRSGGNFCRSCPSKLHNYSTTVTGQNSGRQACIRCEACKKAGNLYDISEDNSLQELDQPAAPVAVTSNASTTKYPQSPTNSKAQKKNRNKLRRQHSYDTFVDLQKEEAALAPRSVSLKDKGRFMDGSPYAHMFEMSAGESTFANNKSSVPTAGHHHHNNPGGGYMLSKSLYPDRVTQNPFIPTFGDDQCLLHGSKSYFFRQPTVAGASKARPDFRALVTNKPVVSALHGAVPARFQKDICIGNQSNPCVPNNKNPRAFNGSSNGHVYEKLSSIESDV

In the case of `COc1ccc2c(c1)CCN(CCCCc1ccccc1)[C@@H](C)[C@H]2O` [formula (17)], the Ki in test [1] was 6.08 ± 1.48 nM; in test [2] it was 42.1 ± 9.9 nM; in test [3] (setting [5]), 0.209 µM.

As to `COc1ccc2c(c1)CCN(CCCCc1ccccc1)[C@H](C)[C@@H]2O` [formula (18)], the figures for the Ki in test [1], in test [2] and in test [3] (setting [5]) were 18.5 ± 4.2 nM, 3.21 ± 1.42 nM and 0.586 µM, respectively.

Regarding `OC1CN(C2CCC(c3ccccc3)CC2)CCc2cc(OCc3ccccc3)ccc21` (stereo not shown) [formula (20)], the Ki stood at 311 nM in test [1], 10.4 ± 1.4 nM in test [2] and 2.51 µM in test [3] (values given in µM).

Turning to `Oc1ccc2c(c1)CCN(CCCOc1ccccc1)CC2O` (stereo not shown) [formula (22)], the Ki in test [1] was determined as 5.89 ± 2.86 nM; in test [2] it was 82.2 nM; in test [3] (setting [5]) it was 0.0234 µM.

Take `OC1CN(C2CCC3(CC2)OCCO3)CCc2cc(OCc3ccccc3)ccc21` (stereo not shown) [formula (25)]: the figures for the Ki in test [1], in test [2] and in test [3] (setting [5]) were 753 nM, 183 nM and 0.00112 µM, respectively.

As to `O=C(c1ccccc1)N1CCC(N2CCc3cc(O)ccc3C(O)C2)CC1` (stereo not shown) [formula (26)], the Ki in test [1] worked out at 97.7 nM; in test [3] (setting [5]), 0.393 µM. The “inhibition of the σ1 receptor only at concentrations above” value in test [2] (given as above 1 µM or 10 µM) is “above 1 µM”.

As to `C[C@@H]1[C@H](O)c2ccc(O)cc2CCN1CCCCc1ccccc1` [formula (27)], the Ki in test [1] was 142 nM; in test [2], 85.5 nM; in test [3] (setting [5]) it was 0.0123 µM.

Regarding `C[C@H]1[C@@H](O)c2ccc(O)cc2CCN1CCCCc1ccccc1` [formula (28)], the figures for the Ki in test [1], in test [2] and in test [3] (setting [5]) were 103 nM, 393 nM and 0.0221 µM, respectively.

Turning to (+)-MK-801, in test [4], the Kd was 2.26 nM.

The values above are taken from patent publication EP2246331A1, “NR2B-selective NMDA-receptor antagonists” (Westfälische Wilhelms-Universität Münster, priority 2009, dated 2010).
